Measurements published in ChEMBL document CHEMBL4715750, “Synthesis and in vitro, ex-vivo and in vivo activity of hybrid compounds linking a potent ROS and RNS scavenger activity with diverse substrates addressed to pass across the blood-brain barrier” (Eur J Med Chem, 2016).
Calls of active or inactive are those of the source. No cut-off for these calls is given here.

Experiments:
[1] = Antioxidant activity assessed as DPPH radical scavenging activity incubated for 60 mins in absence of light; format: functional
SH-SY5Y [2] = experiment: Antioxidant activity in human SH-SY5Y cells assessed as inhibition of H2O2-induced DCFH oxidation measured after 1 hr by DCFH-DA dye based fluorescence assay; format: functional, cell-based
[3] = Cytotoxicity against human SH-SY5Y cells assessed as cell viability at 100 uM measured after 2 hrs by MTT assay relative to control; format: cell-based; conditions: read-out: Activity
[4] = Cytotoxicity against human SH-SY5Y cells assessed as cell viability at 50 uM measured after 2 hrs by MTT assay relative to control; format: cell-based; conditions: read-out: Activity
[5] = Cytotoxicity against human SH-SY5Y cells assessed as cell viability at 25 uM measured after 2 hrs by MTT assay relative to control; format: cell-based; conditions: read-out: Activity
[6] = Cytotoxicity against human SH-SY5Y cells assessed as cell viability at 12.5 uM measured after 2 hrs by MTT assay relative to control; format: cell-based; conditions: read-out: Activity
[7] = Cytotoxicity against human SH-SY5Y cells assessed as cell viability at 6.3 uM measured after 2 hrs by MTT assay relative to control; format: cell-based; conditions: read-out: Activity
[8] = Cytotoxicity against human SH-SY5Y cells assessed as cell viability at 3.1 uM measured after 2 hrs by MTT assay relative to control; format: cell-based; conditions: read-out: Activity
[9] = Cytotoxicity against human SH-SY5Y cells assessed as cell viability at 1.6 uM measured after 2 hrs by MTT assay relative to control; format: cell-based; conditions: read-out: Activity
[10] = Cytotoxicity against human SH-SY5Y cells assessed as cell viability at 0.8 uM measured after 2 hrs by MTT assay relative to control; format: cell-based; conditions: read-out: Activity
[11] = Cytotoxicity against human SH-SY5Y cells assessed as cell viability at 100 uM measured after 24 hrs by MTT assay relative to control; format: cell-based; conditions: read-out: Activity
[12] = Cytotoxicity against human SH-SY5Y cells assessed as cell viability at 50 uM measured after 24 hrs by MTT assay relative to control; format: cell-based; conditions: read-out: Activity
[13] = Cytotoxicity against human SH-SY5Y cells assessed as cell viability at 25 uM measured after 24 hrs by MTT assay relative to control; format: cell-based; conditions: read-out: Activity
[14] = Cytotoxicity against human SH-SY5Y cells assessed as cell viability at 12.5 uM measured after 24 hrs by MTT assay relative to control; format: cell-based; conditions: read-out: Activity
[15] = Cytotoxicity against human SH-SY5Y cells assessed as cell viability at 6.3 uM measured after 24 hrs by MTT assay relative to control; format: cell-based; conditions: read-out: Activity
[16] = Cytotoxicity against human SH-SY5Y cells assessed as cell viability at 3.1 uM measured after 24 hrs by MTT assay relative to control; format: cell-based; conditions: read-out: Activity
[17] = Cytotoxicity against human SH-SY5Y cells assessed as cell viability at 1.6 uM measured after 24 hrs by MTT assay relative to control; format: cell-based; conditions: read-out: Activity
[18] = Cytotoxicity against human SH-SY5Y cells assessed as cell viability at 0.8 uM measured after 24 hrs by MTT assay relative to control; format: cell-based; conditions: read-out: Activity
[19] = Permeability of the compound at pH 7.4 by PAMPA-BBB assay; format: ADME; conditions: read-out: permeability
SH-SY5Y [20] = experiment: Cytoprotective activity against DMSO-induced toxicity in human SH-SY5Y cells; format: functional, cell-based

Row | SMILES | IC50 [1] [µM] | Activity (SH-SY5Y [2]) | IC50 (SH-SY5Y [2]) [µM] | viability at 2 h, 100 µM [3] [%] | viability at 2 h, 50 µM [4] [%] | viability at 2 h, 25 µM [5] [%] | viability at 2 h, 12.5 µM [6] [%] | viability at 2 h, 6.3 µM [7] [%] | viability at 2 h, 3.1 µM [8] [%] | viability at 2 h, 1.6 µM [9] [%] | viability at 2 h, 0.8 µM [10] [%] | viability at 24 h, 100 µM [11] [%] | viability at 24 h, 50 µM [12] [%] | viability at 24 h, 25 µM [13] [%] | viability at 24 h, 12.5 µM [14] [%] | viability at 24 h, 6.3 µM [15] [%] | viability at 24 h, 3.1 µM [16] [%] | viability at 24 h, 1.6 µM [17] [%] | viability at 24 h, 0.8 µM [18] [%] | Papp [19] [×10⁻⁶ cm/s] | also measured
1 | COc1cc2c(cc1O)CCC(C)(CC(=O)N[C@@H](CCC(N)=O)C(=O)O)O2 (stereo partly drawn) | 15 | Dose-dependent effect | 78 | 86.5 | 100 | 100 | 100 | 100 | 100 | 97.1 | 92.8 | 58.2 | 83.2 | 91.8 | 84.8 | 84 | 100 | 89.4 | 92.8 |  | 
2 | COc1cc2c(cc1O)CCC(C)(CC(N)=O)O2 (stereo not drawn) | 10.5 | Dose-dependent effect | 71.2 | 54.7 | 74.9 | 83.6 | 85.8 | 80.8 | 84.8 | 96.1 | 88.2 | 51.4 | 99.2 | 100 | 100 | 100 | 100 | 100 | 96.7 | 0.28 | Activity (SH-SY5Y [20]): Active
3 | COc1cc2c(cc1O)CCC(C)(CCNC(=O)/C=C(C)/C=C/C=C(C)/C=C/C1=C(C)CCCC1(C)C)O2 (stereo not drawn) | 16.2 | Dose-dependent effect | > 300 | 57.7 | 97.4 | 100 | 100 | 90.5 | 97.3 | 93.6 | 87.4 | 47.9 | 91.7 | 91.2 | 100 | 100 | 100 | 99.1 | 89.6 |  | 
4 | COc1cc2c(cc1O)CCC(C)(CC(=O)NCCc1ccc(O)c(O)c1)O2 (stereo not drawn) | 6.9 | Dose-dependent effect | 21.6 | 100 | 100 | 100 | 100 | 100 | 100 | 100 | 100 | 58.4 | 77.5 | 79.1 | 84.2 | 98.4 | 94.8 | 88.9 | 100 | 0.2 | 
5 | COc1cc2c(cc1O)CCC(C)(CC(=O)N[C@H](C(=O)O)C(C)C)O2 (stereo partly drawn) | 17.3 | Dose-dependent effect | 43.8 | 85.9 | 100 | 96.6 | 96.4 | 99.7 | 98 | 92.6 | 93.3 | 61 | 79.3 | 76.1 | 82.6 | 82 | 79.1 | 82.1 | 75.7 | 0.03 | 
6 | COc1cc2c(cc1O)CCC(C)(CC(=O)O)O2 (stereo not drawn) | 8.4 | Dose-dependent effect | 32.3 | 79.9 | 100 | 100 | 100 | 100 | 100 | 100 | 100 | 53.1 | 61 | 92.5 | 92 | 100 | 100 | 100 | 90.2 |  | 
7 | Cc1c(C)c2c(c(C)c1O)CCC(C)(C(=O)O)O2 (stereo not drawn) [TROLOX] | 15.7 | Dose-dependent effect | 82.3 | 86.5 | 92.4 | 99 | 95 | 97.4 | 97.6 | 88.5 | 93.2 | 68 | 81.9 | 86.4 | 82.8 | 83.7 | 79.6 | 87.6 | 84.6 | 1.04 | 
8 | COc1cc2c(cc1O)CCC(C)(CC(=O)N1CCC[C@H]1C(=O)O)O2 (stereo partly drawn) | 19.1 | Dose-dependent effect | 41.4 | 78.8 | 100 | 100 | 100 | 98.8 | 100 | 99.2 | 100 | 79.6 | 100 | 95.8 | 100 | 100 | 100 | 93.2 | 92.8 | 0.04 | 
